Values quoted from earlier work in patent publication US20180066081A1, “SUBSTITUTED CYCLIC ETHER POLYMERS AND CONJUGATES AND USES THEREOF” (UNIVERSITY OF IOWA RESEARCH FOUNDATION, priority 2015, published 2018).

Details: chlorhexidine rinses (e.g., PERIDEX, chlorhexidine gluconate 0.12%); from package insert

[H]/N=C(\N/C(=N/[H])NCCCCCCNC(=N)NC(=N)Nc1ccc(Cl)cc1)Nc1ccc(Cl)cc1 [chlorhexidine]
active compound retained in the oral cavity following application: about 30%
